{"source": "patent US6521670B1", "about": "“Insect control method and composition” (BioAdvantage, Inc., priority 2000, dated 2003)", "tested_on": "flies, bees, wasps, and other winged insects", "assay": "vaporized 1,4-DMN treatment of a closed potato storage facility", "format": "in vivo", "experimental": "The concentration of vapor of 1,4-DMN in the atmosphere of the storage facility was rather low. […] In the experiment, 500 milliliters and 188 milliliters of 1,4-DMN were vaporized and used. Both concentrations were effective. The facility was in a closed state for about 48 hours.\nThe ventilation system of the storage facility had been shut off so that there was no fresh air entering the building and the building was not being evacuated during the 1,4-DMN vapor treatment. The effect of the 1,4-DMN on insects within the storage facility was fairly immediate with substantially all the insects being killed within about 24 hours. In regions or facilities with dangerous insects, or where there is a large concentration of less-dangerous insects, such as bees, wasps and the like, which would create risks to workers, a closed facility may be treated to make it safe. Dangerous insects such as spiders, scorpions and the like may also effectively be treated in this manner with 1,4-DMN.", "data": [{"molecule": "Cc1ccc(C)c2ccccc12", "note": "[1,4-DMN, 1,4-dimethylnaphthalene]", "values": [{"measurement": "time until substantially all the insects were killed", "setting": "1,4-DMN vapor treatment, closed storage facility without ventilation", "result": "≤ 24", "unit": "h"}, {"measurement": "insecticidal effectiveness of vapor treatment", "setting": "188 milliliters of 1,4-DMN vaporized, head space about 9,000 cubic feet, closed about 48 hours", "result": "effective"}, {"measurement": "insecticidal effectiveness of vapor treatment", "setting": "500 milliliters of 1,4-DMN vaporized, head space about 9,000 cubic feet, closed about 48 hours", "result": "effective"}, {"measurement": "effect of vaporized 1,4-DMN on insects contained within a potato storage facility", "setting": "vapor, closed facility of approximately 10,000 cubic feet, head space about 9,000 cubic feet, closed about 48 hours, ventilation shut off", "result": "killed or placed in a state of stupor"}]}]}
